Experimental data from ChEMBL document CHEMBL1150949, “Antimalarial principles from Artemisia indica” (J Nat Prod, 1998).

Tested on: Plasmodium falciparum
Assay: Antimalarial activity against Plasmodium falciparum K1 by [3H]hypoxanthine uptake
Type: functional, organism-based

Structure (SMILES)	EC50
Oc1ccc(-c2cc3cc4c(cc3o2)OCO4)c(O)c1	100 µM
Oc1ccc2c(c1)OC[C@@H]1c3cc4c(cc3O[C@H]21)OCO4 [(+)-MAACKIAIN]	165 µM
COc1c(Cc2ccccc2O)c(O)c(Cc2ccccc2O)c(O)c1C(=O)CCc1ccccc1 [DIUVARETIN]	4.2 µg/mL
C=C(C)[C@H](CC=C(C)C)Cc1c(O)cc(O)c2c1O[C@H](c1c(O)cccc1O)CC2=O [EXIGUAFLAVONE A]	10.8 µM
C=C(C)[C@H](CC=C(C)C)Cc1c(OC)cc(O)c2c1O[C@H](c1c(O)cccc1O)CC2=O [EXIGUAFLAVONE B]	16 µM
COc1cc(O)c(Cc2ccccc2O)c(O)c1C(=O)CCc1ccccc1 [UVARETIN]	3.49 µg/mL
